What was measured:
C. elegans = details: worms on mutant or wild-type yeast with E. coli, treated with DPI; expected result of a planned test
Excerpt: The worms are carefully monitored twice a day from the time the eggs are exposed to the microbial cultures up to day 4, when the Dar phenotype is clearly visible. […] At day 4, the anal swelling (or Dar) phenotype is scored for worms plated on mixed lawns of E. coli and yeast and compared to worms plated on E. coli lawns without yeast or with heat inactivated yeast.
Briefly, worms reared on mixed cultures of mutant or wild-type yeast with E. coli will be treated with DPI. Its effect on the nematode host will be observed phenotypically (using the Dar phenotype described in Preliminary studies) and biochemically (using the peroxidase assay described in Specific Aim 1B).

[1] = test system: ROS produced by the worms; details: worms on mutant or wild-type yeast with E. coli, treated with DPI; expected result of a planned test
Excerpt: a) Peroxidase enzyme activity: A commercially available assay (Amplex Red peroxidase kit, Molecular Probes) will be used to test peroxidase activity (20). Briefly, ROS produced by the worms, presumably in response to pathogenic attack, oxidize the substrate Amplex Red, to form a red fluorescent product that can be measured spectrophotometrically.
Briefly, worms reared on mixed cultures of mutant or wild-type yeast with E. coli will be treated with DPI.

## O=S(=O)([O-])[O-].c1ccc2c(c1)[I+]c1ccccc1-2.c1ccc2c(c1)[I+]c1ccccc1-2 [DPI, Diphenylene iodonium sulfate]
C. elegans
  Dar phenotype: expect to observe the Dar phenotype
[1]
  peroxidase activity: low peroxidase activity

Reference: patent publication US8541197B2 (priority 2006, dated 2013)
